Experimental data as given in publication PMC4450297, “Screening Active Compounds from Garcinia Species Native to China Reveals Novel Compounds Targeting the STAT/JAK Signaling Pathway” (BioMed Research International, 2015).

Tested on: Panc 03.27
Assay: Cell panel screen (CellTiter-Glo)
Assay type: cell-based, human
Conditions: Panc 03.27 (Pancreas), 20 micromolar, 72 hrs
Method: (§1) All cells were obtained from the cell bank of the American Type Culture Collection (ATCC) and cultured in the supplier's recommended media supplemented with 10% FBS. The cell panel screen was measured using the CellTiter-Glo assay (Promega, Madison, WI) following a standard protocol. Briefly, cancer cells were seeded in 96-well plates and cultured overnight at 37°C with or without 5% CO2 in an incubator. Each compound was dissolved with limited DMSO and diluted to a certain concentration with culture medium and then added to the corresponding well of the cell plate. The final concentration of compound was 20 μM. The control cells (without treatment) received the same amount of DMSO and were incubated under the same conditions. After 72 h cultivation, 100 μL of the CellTiter-Glo reagent was added directly to each well for 10-minute incubation. The plate was then read on a FlexStation 3 microplate luminometer (Molecular Devices, USA) to monitor the luminescence signal generated by the luciferase-catalyzed reaction of luciferin and ATP. The percent of growth inhibition was calculated using the following formula: (untreated cells − treated cells)/(untreated cells − background without cells) ∗ 100.

SMILES	Percent Inhibition
CC(C)=CCc1c(O)cc(O)c2c1O[C@]13C(=C[C@@H]4C[C@H]1C(C)(C)O[C@@]3(CC=C(C)C)C4=O)C2=O [GB35]	99%

Tested on: C3A
Assay: Cell panel screen (CellTiter-Glo)
Assay type: cell-based, human
Conditions: C3A (Liver), 20 micromolar, 72 hrs
Method: as §1

SMILES	Percent Inhibition
CC(C)=CCc1c(O)cc(O)c2c1O[C@]13C(=C[C@@H]4C[C@H]1C(C)(C)O[C@@]3(CC=C(C)C)C4=O)C2=O [GB35]	98%

Tested on: RL95
Assay: Cell panel screen (CellTiter-Glo)
Assay type: cell-based, human
Conditions: RL95 (Uterus), 20 micromolar, 72 hrs
Method: as §1

SMILES	Percent Inhibition
CC(C)=CCc1c(O)cc(O)c2c1O[C@]13C(=C[C@@H]4C[C@H]1C(C)(C)O[C@@]3(CC=C(C)C)C4=O)C2=O [GB35]	100%

Tested on: CCF-STTG1
Assay: Cell panel screen (CellTiter-Glo)
Assay type: cell-based, human
Conditions: CCF-STTG1 (Brain), 20 micromolar, 72 hrs
Method: as §1

SMILES	Percent Inhibition
CC(C)=CCc1c(O)cc(O)c2c1O[C@]13C(=C[C@@H]4C[C@H]1C(C)(C)O[C@@]3(CC=C(C)C)C4=O)C2=O [GB35]	100%

Tested on: NCI-H1694
Assay: Cell panel screen (CellTiter-Glo)
Assay type: cell-based, human
Conditions: NCI-H1694 (Lung), 20 micromolar, 72 hrs
Method: as §1

SMILES	Percent Inhibition
CC(C)=CCc1c(O)cc(O)c2c1O[C@]13C(=C[C@@H]4C[C@H]1C(C)(C)O[C@@]3(CC=C(C)C)C4=O)C2=O [GB35]	100%

Tested on: Colo 205
Assay: Cell panel screen (CellTiter-Glo)
Assay type: cell-based, human
Conditions: Colo 205, 20 micromolar, 72 hrs
Method: as §1

SMILES	Percent Inhibition
CC(C)=CCc1c(O)cc(O)c2c1O[C@]13C(=C[C@@H]4C[C@H]1C(C)(C)O[C@@]3(CC=C(C)C)C4=O)C2=O [GB35]	100%

Tested on: T98G
Assay: Cell panel screen (CellTiter-Glo)
Assay type: cell-based, human
Conditions: T98G (Brain), 20 micromolar, 72 hrs
Method: as §1

SMILES	Percent Inhibition
CC(C)=CCc1c(O)cc(O)c2c1O[C@]13C(=C[C@@H]4C[C@H]1C(C)(C)O[C@@]3(CC=C(C)C)C4=O)C2=O [GB35]	100%

Tested on: NCI-H524
Assay: Cell panel screen (CellTiter-Glo)
Assay type: cell-based, human
Conditions: NCI-H524 (Lung), 20 micromolar, 72 hrs
Method: as §1

SMILES	Percent Inhibition
CC(C)=CCc1c(O)cc(O)c2c1O[C@]13C(=C[C@@H]4C[C@H]1C(C)(C)O[C@@]3(CC=C(C)C)C4=O)C2=O [GB35]	100%

Tested on: HEC-1-A
Assay: Cell panel screen (CellTiter-Glo)
Assay type: cell-based, human
Conditions: HEC-1-A (Uterus), 20 micromolar, 72 hrs
Method: as §1

SMILES	Percent Inhibition
CC(C)=CCc1c(O)cc(O)c2c1O[C@]13C(=C[C@@H]4C[C@H]1C(C)(C)O[C@@]3(CC=C(C)C)C4=O)C2=O [GB35]	100%

Tested on: A704
Assay: Cell panel screen (CellTiter-Glo)
Assay type: cell-based, human
Conditions: A704 (Kidney), 20 micromolar, 72 hrs
Method: as §1

SMILES	Percent Inhibition
CC(C)=CCc1c(O)cc(O)c2c1O[C@]13C(=C[C@@H]4C[C@H]1C(C)(C)O[C@@]3(CC=C(C)C)C4=O)C2=O [GB35]	99%

Tested on: A498
Assay: Cell panel screen (CellTiter-Glo)
Assay type: cell-based, human
Conditions: A498 (listed under Lung), 20 micromolar, 72 hrs
Method: as §1

SMILES	Percent Inhibition
CC(C)=CCc1c(O)cc(O)c2c1O[C@]13C(=C[C@@H]4C[C@H]1C(C)(C)O[C@@]3(CC=C(C)C)C4=O)C2=O [GB35]	93%

Tested on: ZR-75-30
Assay: Cell panel screen (CellTiter-Glo)
Assay type: cell-based, human
Conditions: ZR-75-30 (Breast), 20 micromolar, 72 hrs
Method: as §1

SMILES	Percent Inhibition
CC(C)=CCc1c(O)cc(O)c2c1O[C@]13C(=C[C@@H]4C[C@H]1C(C)(C)O[C@@]3(CC=C(C)C)C4=O)C2=O [GB35]	100%

Tested on: HGC-27
Assay: Cell panel screen (CellTiter-Glo)
Assay type: cell-based, human
Conditions: HGC-27 (Stomach), 20 micromolar, 72 hrs
Method: as §1

SMILES	Percent Inhibition
CC(C)=CCc1c(O)cc(O)c2c1O[C@]13C(=C[C@@H]4C[C@H]1C(C)(C)O[C@@]3(CC=C(C)C)C4=O)C2=O [GB35]	100%

Tested on: HCC1569
Assay: Cell panel screen (CellTiter-Glo)
Assay type: cell-based, human
Conditions: HCC1569 (Breast), 20 micromolar, 72 hrs
Method: as §1

SMILES	Percent Inhibition
CC(C)=CCc1c(O)cc(O)c2c1O[C@]13C(=C[C@@H]4C[C@H]1C(C)(C)O[C@@]3(CC=C(C)C)C4=O)C2=O [GB35]	100%

Tested on: SW13
Assay: Cell panel screen (CellTiter-Glo)
Assay type: cell-based, human
Conditions: SW13 (Adrenal gland), 20 micromolar, 72 hrs
Method: as §1

SMILES	Percent Inhibition
CC(C)=CCc1c(O)cc(O)c2c1O[C@]13C(=C[C@@H]4C[C@H]1C(C)(C)O[C@@]3(CC=C(C)C)C4=O)C2=O [GB35]	100%

Tested on: NCI-H1623
Assay: Cell panel screen (CellTiter-Glo)
Assay type: cell-based, human
Conditions: NCI-H1623 (Lung), 20 micromolar, 72 hrs
Method: as §1

SMILES	Percent Inhibition
CC(C)=CCc1c(O)cc(O)c2c1O[C@]13C(=C[C@@H]4C[C@H]1C(C)(C)O[C@@]3(CC=C(C)C)C4=O)C2=O [GB35]	100%

Tested on: CW-2
Assay: Cell panel screen (CellTiter-Glo)
Assay type: cell-based, human
Conditions: CW-2 (Colon), 20 micromolar, 72 hrs
Method: as §1

SMILES	Percent Inhibition
CC(C)=CCc1c(O)cc(O)c2c1O[C@]13C(=C[C@@H]4C[C@H]1C(C)(C)O[C@@]3(CC=C(C)C)C4=O)C2=O [GB35]	100%

Tested on: J82
Assay: Cell panel screen (CellTiter-Glo)
Assay type: cell-based, human
Conditions: J82 (Urinary bladder), 20 micromolar, 72 hrs
Method: as §1

SMILES	Percent Inhibition
CC(C)=CCc1c(O)cc(O)c2c1O[C@]13C(=C[C@@H]4C[C@H]1C(C)(C)O[C@@]3(CC=C(C)C)C4=O)C2=O [GB35]	99%
